PMC10673995, “Discovery of a novel cardiac-specific myosin modulator using artificial intelligence-based virtual screening” (Nature Communications, 2023)
Values joined by “and” are separate entries in the source; they are usually repeats but may differ in a detail not shown here. Equal values may be shown once. Read-outs that look alike come from different tables or passages of the source.

Tests used:
[1] = target: bovine β-cardiac myosin S1 / myosin S2 tail domain (Bos taurus, UniProt Q9BE39)
Procedure: In a subset of trabeculae, we replaced the endogenous myosin regulatory light chain (RLC) with a recombinant cardiac RLC crosslinked to a bifunctional sulforhodamine (BSR) along its E-helix (BSR-cRLC-E)[39],[40]. This allowed us to determine the orientation of the RLC-region of myosin in demembranated trabeculae using polarized fluorescence (Fig. 4b; Supplementary Table 2).
Microscale thermophoresis (MST) experiments were performed as described previously. Briefly, MST experiments were performed on a Monolith NT.115 instrument (NanoTemper) in interaction buffer containing 20 mmol L^−1 Mops, pH 7, 1 mmol L^−1 MgCl2, 50 mmol L^−1 KCl, 1 mmol L^−1 DTT, and 0.05% (v/v) Tween-20. […] All proteins were either gel-filtered into and/or extensively dialyzed against interaction buffer. Titration experiments were performed with a fixed concentration of 100 nmol L^−1 of Alexa647-labeled proteins in premium capillaries.

[2] = test system: cyclic GMP-AMP synthase; parameters: method as in PubChem; settings: ref PubChem; cited from earlier work
[3] = test system: slow skeletal muscle (Soleus) myofibrils; assay: Myofibrillar ATPase, slow skeletal myofibrils; format: biochemical, marmoset (Callithrix jacchus)
Description: (§1) Next we tested the myosin isoform specificity of F10 by measuring its effect on the ATPase activity of myofibrils isolated from ventricle, and fast (Tiberialis Anterior) and slow skeletal muscles (Soleus) isolated from marmoset (Callithrix jacchus).
(§2) Demembranated myofibrils were freshly prepared from bovine ventricle on the day of the experiments as previously described[25],[63]. Marmoset ventricular and skeletal muscle tissue was kindly provided by the Biological Service Unit of King’s College London. Steady-state myofibrillar ATPase activity was measured using an identical protocol as described above but in myofibril assay buffer (composition in mmol L^−1: 20 MOPS pH 7, 50 KCl, 0.1 CaCl2, 1 DTT) with a final bovine CMF concentration of 1 mg mL^−1.

[4] = test system: cardiac myofibrils; assay: Myofibrillar ATPase, cardiac (ventricle) myofibrils; format: biochemical, marmoset (Callithrix jacchus)
Description: as §1, §2

[5] = test system: phospholipid biosynthesis in mammalian cells; parameters: method as in PubChem; settings: ref PubChem; cited from earlier work
[6] = target: bovine cardiac myofibrils (CMF) (Bos taurus, UniProt Q9BE39); assay: Bovine cardiac myofibrillar ATPase dose-response (F10 and derivatives)
[7] = test system: isolated cardiac muscle fibers; settings: read-out: reported IC50 for force inhibition; cited from earlier work

Chain of bovine β-cardiac myosin S1 / myosin S2 tail domain (Q9BE39 85-778 limits assumed): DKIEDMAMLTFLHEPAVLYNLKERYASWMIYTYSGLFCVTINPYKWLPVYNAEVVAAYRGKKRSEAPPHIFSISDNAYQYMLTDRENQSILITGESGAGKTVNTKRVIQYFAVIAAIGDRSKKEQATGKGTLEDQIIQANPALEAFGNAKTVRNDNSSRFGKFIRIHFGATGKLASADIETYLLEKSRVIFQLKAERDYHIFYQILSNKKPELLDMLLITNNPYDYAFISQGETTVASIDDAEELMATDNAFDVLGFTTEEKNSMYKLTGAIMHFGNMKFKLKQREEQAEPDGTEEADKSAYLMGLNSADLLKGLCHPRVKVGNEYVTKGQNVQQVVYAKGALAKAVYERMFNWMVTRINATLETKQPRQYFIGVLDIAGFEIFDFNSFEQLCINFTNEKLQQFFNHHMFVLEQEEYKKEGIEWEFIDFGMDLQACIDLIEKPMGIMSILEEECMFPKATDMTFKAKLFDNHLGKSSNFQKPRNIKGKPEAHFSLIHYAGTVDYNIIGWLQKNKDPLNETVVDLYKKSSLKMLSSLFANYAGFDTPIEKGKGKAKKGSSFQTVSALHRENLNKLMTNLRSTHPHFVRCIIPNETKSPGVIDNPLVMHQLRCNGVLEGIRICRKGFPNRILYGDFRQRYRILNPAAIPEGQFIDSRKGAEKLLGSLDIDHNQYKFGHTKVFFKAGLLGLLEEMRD
Chain of bovine β-cardiac myosin S1 / myosin S2 tail domain (P85100 whole entry partner, the tested form may be a part): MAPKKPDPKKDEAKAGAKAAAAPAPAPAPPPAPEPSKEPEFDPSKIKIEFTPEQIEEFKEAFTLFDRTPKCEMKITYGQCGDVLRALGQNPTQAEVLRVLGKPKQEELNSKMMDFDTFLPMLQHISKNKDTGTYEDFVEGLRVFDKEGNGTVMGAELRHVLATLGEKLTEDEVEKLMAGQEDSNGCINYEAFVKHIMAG
Chain of bovine cardiac myofibrils (CMF) (Q9BE39 whole entry): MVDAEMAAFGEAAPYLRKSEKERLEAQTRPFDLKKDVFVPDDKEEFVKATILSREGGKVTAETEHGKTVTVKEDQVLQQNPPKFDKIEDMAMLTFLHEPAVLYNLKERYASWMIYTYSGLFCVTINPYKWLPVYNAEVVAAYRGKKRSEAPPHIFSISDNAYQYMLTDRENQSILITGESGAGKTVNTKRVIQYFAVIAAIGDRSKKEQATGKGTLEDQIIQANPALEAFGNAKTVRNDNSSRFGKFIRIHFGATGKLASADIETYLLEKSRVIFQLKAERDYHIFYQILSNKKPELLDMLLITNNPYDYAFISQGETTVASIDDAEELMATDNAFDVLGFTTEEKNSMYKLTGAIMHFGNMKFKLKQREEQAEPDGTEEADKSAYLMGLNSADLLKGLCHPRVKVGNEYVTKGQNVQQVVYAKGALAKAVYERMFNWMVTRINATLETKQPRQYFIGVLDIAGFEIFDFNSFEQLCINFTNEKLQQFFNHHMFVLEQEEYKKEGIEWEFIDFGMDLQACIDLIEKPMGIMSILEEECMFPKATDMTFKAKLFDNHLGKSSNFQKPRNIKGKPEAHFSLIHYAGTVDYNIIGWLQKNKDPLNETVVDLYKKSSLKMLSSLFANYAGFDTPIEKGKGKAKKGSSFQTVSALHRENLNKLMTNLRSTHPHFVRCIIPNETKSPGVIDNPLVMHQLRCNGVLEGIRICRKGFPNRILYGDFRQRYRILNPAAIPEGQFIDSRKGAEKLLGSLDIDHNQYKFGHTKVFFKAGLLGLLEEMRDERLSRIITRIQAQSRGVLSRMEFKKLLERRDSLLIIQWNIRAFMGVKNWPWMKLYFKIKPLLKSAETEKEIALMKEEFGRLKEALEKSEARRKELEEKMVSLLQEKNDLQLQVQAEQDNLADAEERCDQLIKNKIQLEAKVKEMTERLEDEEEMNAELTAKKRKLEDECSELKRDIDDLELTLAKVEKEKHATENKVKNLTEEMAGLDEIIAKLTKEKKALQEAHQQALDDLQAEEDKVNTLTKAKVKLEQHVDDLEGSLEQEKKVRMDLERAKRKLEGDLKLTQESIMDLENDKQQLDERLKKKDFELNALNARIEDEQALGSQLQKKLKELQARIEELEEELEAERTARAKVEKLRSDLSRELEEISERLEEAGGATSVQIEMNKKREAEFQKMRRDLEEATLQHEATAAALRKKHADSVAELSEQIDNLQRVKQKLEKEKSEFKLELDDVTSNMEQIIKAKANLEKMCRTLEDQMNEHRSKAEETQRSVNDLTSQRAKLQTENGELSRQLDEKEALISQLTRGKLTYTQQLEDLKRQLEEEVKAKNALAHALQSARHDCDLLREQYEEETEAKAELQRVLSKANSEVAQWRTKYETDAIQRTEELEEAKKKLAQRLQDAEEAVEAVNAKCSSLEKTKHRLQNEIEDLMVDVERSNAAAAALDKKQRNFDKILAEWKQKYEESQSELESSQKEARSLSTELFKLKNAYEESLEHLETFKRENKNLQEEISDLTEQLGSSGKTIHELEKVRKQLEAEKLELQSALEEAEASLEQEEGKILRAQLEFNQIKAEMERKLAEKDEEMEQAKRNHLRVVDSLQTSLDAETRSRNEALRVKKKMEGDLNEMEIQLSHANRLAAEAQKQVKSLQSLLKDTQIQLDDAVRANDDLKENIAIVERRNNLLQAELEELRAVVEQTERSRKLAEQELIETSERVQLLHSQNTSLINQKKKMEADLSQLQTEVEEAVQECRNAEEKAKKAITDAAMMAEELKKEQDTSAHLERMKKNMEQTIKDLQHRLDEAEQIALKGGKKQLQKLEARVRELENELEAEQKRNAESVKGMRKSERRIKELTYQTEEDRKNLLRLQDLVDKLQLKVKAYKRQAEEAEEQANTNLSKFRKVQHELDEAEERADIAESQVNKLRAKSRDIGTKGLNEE
Chain of bovine cardiac myofibrils (CMF) (P85100 whole entry partner): as the sequence (P85100 whole entry partner, the tested form may be a part) above
Chain of bovine cardiac myofibrils (CMF) (Q3SZE5 whole entry partner): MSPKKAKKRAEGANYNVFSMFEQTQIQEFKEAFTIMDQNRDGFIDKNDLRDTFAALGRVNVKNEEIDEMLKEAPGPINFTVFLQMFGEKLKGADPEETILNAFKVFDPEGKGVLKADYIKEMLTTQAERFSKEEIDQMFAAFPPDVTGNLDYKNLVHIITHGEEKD

In the case of CCc1cc2c(=O)n(NC(=S)NC(C)C)cnc2s1 [F10], the “Normalized MST binding S1-S2” value ([1]; 1 mmol L-1 ADP.AlF4, S2D 0.0488) is reported as 0.03566, the “Normalized MST binding S1-S2” value ([1]; 1 mmol L-1 ADP.AlF4, S2D 0.0977) is reported as 0.0163 and the “Normalized MST binding S1-S2” value ([1]; 1 mmol L-1 ADP.AlF4, S2D 0.3906) is reported as 0.009201. The “Normalized MST binding S1-S2” value ([1]; 1 mmol L-1 ADP.AlF4, S2D 0.7813) was 0.03149, the “Normalized MST binding S1-S2” value ([1]; 1 mmol L-1 ADP.AlF4, S2D 1.5625) was 0.0885 and the “Normalized MST binding S1-S2” value ([1]; 1 mmol L-1 ADP.AlF4, S2D 3.125) was 0.1616. The “Normalized MST binding S1-S2” value ([1]; 1 mmol L-1 ADP.AlF4, S2D 6.25) was 0.3206, the “Normalized MST binding S1-S2” value ([1]; 1 mmol L-1 ADP.AlF4, S2D 12.5) was 0.4612 and the “Normalized MST binding S1-S2” value ([1]; 1 mmol L-1 ADP.AlF4, S2D 25) was 0.6248. The “Normalized MST binding S1-S2” value ([1]; 1 mmol L-1 ADP.AlF4, S2D 50) was 0.7947, the “Normalized MST binding S1-S2” value ([1]; 1 mmol L-1 ADP.AlF4, S2D 100) was 0.8606 and the “Normalized MST binding S1-S2” value ([1]; 1 mmol L-1 ADP, S2D 0.0488) was 0.01363. For the same compound, the “Normalized MST binding S1-S2” value ([1]; 1 mmol L-1 ADP, S2D 0.0977) was 0.01186, the “Normalized MST binding S1-S2” value ([1]; 1 mmol L-1 ADP, S2D 0.1953) was 0.01368 and the “Normalized MST binding S1-S2” value ([1]; 1 mmol L-1 ADP, S2D 0.3906) was 0.0116. For the same compound, the “Normalized MST binding S1-S2” value ([1]; 1 mmol L-1 ADP, S2D 0.7813) was 0.04036, the “Normalized MST binding S1-S2” value ([1]; 1 mmol L-1 ADP, S2D 1.5625) was 0.07905 and the “Normalized MST binding S1-S2” value ([1]; 1 mmol L-1 ADP, S2D 3.125) was 0.1319. For the same compound, the “Normalized MST binding S1-S2” value ([1]; 1 mmol L-1 ADP, S2D 6.25) was 0.2708, the “Normalized MST binding S1-S2” value ([1]; 1 mmol L-1 ADP, S2D 12.5) was 0.4119 and the “Normalized MST binding S1-S2” value ([1]; 1 mmol L-1 ADP, S2D 25) was 0.5835. For the same compound, the “Normalized MST binding S1-S2” value ([1]; 1 mmol L-1 ADP, S2D 50) was 0.7506, the “Normalized MST binding S1-S2” value ([1]; 1 mmol L-1 ADP, S2D 100) was 0.8408 and the “Normalized MST binding S1-S2” value ([1]; 1 mmol L-1 ATP, S2D 0.0488) was 0.07487. The “Normalized MST binding S1-S2” value ([1]; 1 mmol L-1 ATP, S2D 0.0977) was 0.0005344, the “Normalized MST binding S1-S2” value ([1]; 1 mmol L-1 ATP, S2D 0.1953) was -0.01266 and the “Normalized MST binding S1-S2” value ([1]; 1 mmol L-1 ATP, S2D 0.3906) was 0.02682. For the same compound, the “Normalized MST binding S1-S2” value ([1]; 1 mmol L-1 ATP, S2D 0.7813) was 0.008303, the “Normalized MST binding S1-S2” value ([1]; 1 mmol L-1 ATP, S2D 1.5625) was 0.06777 and the “Normalized MST binding S1-S2” value ([1]; 1 mmol L-1 ATP, S2D 3.125) was 0.1347. The “Normalized MST binding S1-S2” value ([1]; 1 mmol L-1 ATP, S2D 6.25) was 0.2613, the “Normalized MST binding S1-S2” value ([1]; 1 mmol L-1 ATP, S2D 12.5) was 0.4278 and the “Normalized MST binding S1-S2” value ([1]; 1 mmol L-1 ATP, S2D 25) was 0.5839. The “Normalized MST binding S1-S2” value ([1]; 1 mmol L-1 ATP, S2D 50) was 0.7582, the “Normalized MST binding S1-S2” value ([1]; 1 mmol L-1 ATP, S2D 100) was 0.8343 and the “biological activity in primary screen” value [2] was “without, however, any biological activity”. The “decrease in ATPase activity of soleus myofibrils” value ([3]; 20 μmol L^−1 F10) was “about 10%”, the “Myofibrilar ATPase [%], change vs control” value ([3]; Soleus (slow), 20 μmol L^-1 F10) was -10% and the “Myofibrilar ATPase, individual experiments” value ([3]; Soleus, 20 μmol L^-1 F10) was 91.7277% and 110.835% and 94.2329% and 93.0845% and 93.8276% and 88.6937% and 89.9096% and 92.8819% and 84.7083% and 101.326% and 81.2354% and 85.1848% and 83.8911% and 92.3346% and 84.6401% and 69.9319% and 80.963% and 77.0136% and 90.9224% and 106.296% and 102.343% and 99.9268% and 89.6779% and 109.737%. For the same compound, the “reduction of ATPase activity of fully Ca^2+-activated cardiac myofibrils” value ([4]; 20 μmol L^−1 F10) was “about 25%”, the “Myofibrilar ATPase [%], change vs control” value ([4]; Cardiac, 20 μmol L^-1 F10) was -25% and the “Myofibrilar ATPase, individual experiments” value ([4]; Cardiac, 20 μmol L^-1 F10) was 83.5308% and 67.1834% and 78.6678% and 70.8623% and 61.5039% and 74.009% and 72.9056% and 72.7421% and 68.3286% and 79.5291% and 87.482% and 81.308% and 87.6564% and 79.3198% and 89.7828% and 83.8896% and 74.0503% and 38.3012% and 88.0917% and 60.4189%. The “biological activity in primary screen” value [5] was “without, however, any biological activity”, the IC50 [6] was about 24 µM and the “maximal inhibition of bovine CMF ATPase activity” value ([6]; suboptimal Ca^2+-activation, about 70% maximal activation) was “about 60%”.
In the case of CC(C)n1c(=O)cc(N[C@@H](C)c2ccccc2)[nH]c1=O [Mavacamten], the IC50 [7] is listed as about 1 µM.
